This note sets out measurements from patent publication US7297551B2, “Recombinant proteins and peptides for endotoxin biosensors, endotoxin removal, and anti-microbial and anti-endotoxin therapeutics” (priority 1998, dated 2007).

Assay [1] deals with T1, rFC (full-length recombinant C. rotundicauda Factor C, CrFC21, from P. pastoris) (Carcinoscorpius rotundicauda, UniProt Q26422).
T1 sequence (Q26422 1-1019): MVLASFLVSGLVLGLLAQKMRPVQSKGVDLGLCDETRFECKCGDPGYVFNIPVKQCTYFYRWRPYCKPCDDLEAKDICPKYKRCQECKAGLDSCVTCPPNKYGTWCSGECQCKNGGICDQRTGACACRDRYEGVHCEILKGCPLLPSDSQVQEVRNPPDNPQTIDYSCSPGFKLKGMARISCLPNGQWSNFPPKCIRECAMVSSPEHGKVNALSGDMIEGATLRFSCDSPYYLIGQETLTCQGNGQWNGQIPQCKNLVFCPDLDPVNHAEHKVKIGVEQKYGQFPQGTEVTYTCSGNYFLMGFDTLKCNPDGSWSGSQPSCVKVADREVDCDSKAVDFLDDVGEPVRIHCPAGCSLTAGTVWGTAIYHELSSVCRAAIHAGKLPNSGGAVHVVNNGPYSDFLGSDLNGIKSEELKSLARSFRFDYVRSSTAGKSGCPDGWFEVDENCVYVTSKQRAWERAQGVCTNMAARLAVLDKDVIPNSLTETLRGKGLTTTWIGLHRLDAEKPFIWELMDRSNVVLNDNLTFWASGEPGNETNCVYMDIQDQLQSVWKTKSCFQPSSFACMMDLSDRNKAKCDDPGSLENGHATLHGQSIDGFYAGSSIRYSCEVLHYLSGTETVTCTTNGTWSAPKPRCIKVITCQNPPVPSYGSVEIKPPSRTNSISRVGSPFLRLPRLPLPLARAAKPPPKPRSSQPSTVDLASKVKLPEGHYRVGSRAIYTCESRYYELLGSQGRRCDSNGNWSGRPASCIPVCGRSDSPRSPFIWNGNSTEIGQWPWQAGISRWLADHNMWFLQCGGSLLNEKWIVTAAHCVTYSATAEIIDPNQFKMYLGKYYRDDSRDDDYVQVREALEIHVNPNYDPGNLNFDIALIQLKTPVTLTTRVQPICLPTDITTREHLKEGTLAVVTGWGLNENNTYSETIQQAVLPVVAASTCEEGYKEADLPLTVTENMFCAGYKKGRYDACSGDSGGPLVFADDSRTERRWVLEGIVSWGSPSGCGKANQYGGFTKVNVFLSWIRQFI
Kind of assay: BIACORE X binding to immobilized lipid A. Particulars: partially-pure rFC to lipid A 10:1 on a mass basis. On the procedure:
(§1) The binding interactions between rFC and immobilized lipid A were monitored using the BIACORE X™ biosensor (Pharmacia Biotech). The BIACORE X™ sensor chip features a flat hydrophobic surface that allows the immobilization of ligand molecules. Thirty microliters of lipid A at 100 μg/ml were immobilized on each sensor chip to form a ligand surface. Biomax™-50 enriched samples of rFC, rFCEE and rFCSN, each at 1 mg/ml were injected at 10 μl/min for 3 min over the ligand surface. After each injection of the recombinant protein samples, the lipid A ligand surface was regenerated using 0.1 M NaOH. The ligand-binding was measured in relative response units (RU) for each sample, and calculated from the difference in RU at the baseline, viz., before injection of sample, and final experimental reading taken after sample injection and a 2-min wash. The percentage binding was thus determined.
(In general: In SPR one partner is held on a chip, and binding of the other changes the refractive index at the surface.)

Assay [2] deals with T2, rFCEE (truncated C. rotundicauda Factor C, CrFC21EE, amino acids 1-766, from P. pastoris) (Carcinoscorpius rotundicauda, UniProt Q26422).
T2 construct: Pichia pastoris, Biomax-50 enriched
T2 sequence (Q26422 1-766): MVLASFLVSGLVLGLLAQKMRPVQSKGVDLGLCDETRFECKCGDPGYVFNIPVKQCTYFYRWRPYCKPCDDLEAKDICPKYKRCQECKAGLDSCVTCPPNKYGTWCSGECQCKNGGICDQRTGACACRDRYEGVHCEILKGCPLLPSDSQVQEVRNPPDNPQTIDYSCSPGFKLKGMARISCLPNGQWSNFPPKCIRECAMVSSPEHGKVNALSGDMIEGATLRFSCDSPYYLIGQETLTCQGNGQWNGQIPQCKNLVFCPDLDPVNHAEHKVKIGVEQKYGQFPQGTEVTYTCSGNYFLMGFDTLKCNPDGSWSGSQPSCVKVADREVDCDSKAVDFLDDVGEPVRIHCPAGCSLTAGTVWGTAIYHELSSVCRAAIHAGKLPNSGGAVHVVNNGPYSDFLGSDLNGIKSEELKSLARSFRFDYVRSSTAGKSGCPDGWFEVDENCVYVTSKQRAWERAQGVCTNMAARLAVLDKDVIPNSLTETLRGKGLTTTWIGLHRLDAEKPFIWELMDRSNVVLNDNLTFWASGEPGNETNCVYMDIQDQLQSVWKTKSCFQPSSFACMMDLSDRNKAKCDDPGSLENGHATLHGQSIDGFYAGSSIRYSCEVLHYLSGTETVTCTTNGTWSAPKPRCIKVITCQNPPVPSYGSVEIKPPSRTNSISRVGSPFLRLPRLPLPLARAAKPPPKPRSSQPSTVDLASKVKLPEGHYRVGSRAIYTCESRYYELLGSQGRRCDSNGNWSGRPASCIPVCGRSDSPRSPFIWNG
Kind of assay: BIACORE X binding to immobilized lipid A. Particulars: Biomax-50 enriched, normalized with rFCSN. On the procedure: as §1

As for lipid A, the “net response, lipid A bound” value was “approximately 30%” in assay [1] and 15% in assay [2].
